Here are results for two sequences from publication PMC6386929, “Evaluation of the Antimicrobial Activity of Cationic Peptides Loaded in Surface-Modified Nanoliposomes against Foodborne Bacteria” (International Journal of Molecular Sciences, 2019).

Data set [1] concerns L. monocytogenes ATCCbaa751. In kind it is cell-based, Listeria monocytogenes. The source says:
(§1) L. monocytogenes ATCCbaa751 and E. coli ATCC25922, were obtained from the American Type Culture Collection (ATCC; Rockville, MD, USA). NovaPEG Rink Amida resin, Fmoc-protected amino acids, 2-(1H-benzotriazole-1-yl)-1,1,3,3-tetramethyluronium tetrafluoro-borate (TBTU), Piperidine, N,N-Diisopropylethylamine (DIEA), Ninhydrin, Dimethylformamide (DMF), Trifluoroacetic acid (TFA), 1,2-Ethanedithiol (EDT), Triisopropylsilane (TIS) and Mueller Hinton Broth (MHB) were purchased in Merck (Darmstadt, Germany). Cholesterol, Epikuron 200® and dioleoyl-phosphatidyl-ethanolamine (DOPE) were obtained from Avanti Polar Lipids (Alabaster, Alabama, USA). Eudragit® E-100 was purchased in Evonik (Darmstadt, Germany). Ampicillin (Fersinsa Gb) was supplied by Tecnoquímicas S.A. (Cali, Colombia) and Gentamicin solution (GENFAR®, Cali, Colombia) was purchased from a local pharmacy. The datasets used and materials using during this study are available from the corresponding author on reasonable request.
(§2) Microbial susceptibility tests were performed according to clinical and laboratory standards institute (CLSI) standard methods. Bacteria were inoculated in MHB and incubated overnight at 37 °C. […] After incubation, the minimum inhibitory concentration (MIC) was determined by visual analysis.

A short description of data set [2]: Surface tension (pendant drop) and aggregation index (dual-angle DLS) of peptides in aqueous media. The data set is classed as physicochemical. Particulars: PBS pH 7.2, 138 mM NaCl; peptide 0–50 µM; pendant drop and dual-angle DLS (173° and 13°); triplicate. Here is the method: Surface tension measurements of the peptides were carried out using a contact angle meter (OCA15EC Dataphysics Instruments, Filderstadt, Germany) with a software driver (version 4.5.14 SCA22), where the data capture was recorded using an IDS video camera. For this, the pendant-drop method was performed in triplicate, where peptide concentrations between 0 and 50 µM were prepared with ultrapure water and phosphate buffer saline pH 7.2 (PBS, 138 mM NaCl, 3 mM KCl, 1.5 mM NaH2PO4, 8.1 mM Na2HPO4). The samples of peptides +2 and +5 were prepared in serial concentrations between 0 and 50 µM in PBS buffer pH 7.2 at 138 mM of ionic strength. An aliquot was analysed immediately after preparation. Dual angle DLS measurements (173° and 13°) of automatic duration were carried out using a Zetasizer Nano ZSP (Malvern Instruments, Worcestershire, United Kingdom). The Aggregation Index is a parameter based on the mean z-average size measured for the two angles of scattering according to the equation: (1) Aggregation index=[Zfwd/Zbkd−1] where, Zfwd is the average particle size detected by forward scatter optics at 13°. Trace amounts of aggregate are often highly useful for the enhanced detection of large protein aggregates, whereas Zbkd is the particle size average at a detection angle of 173° (non-invasive back-scatter).

The test system of a further data set is E. coli ATCC25922. In kind it is cell-based, Escherichia coli.
Description: as §1, §2

A further data set concerns E. coli. Conditions: cited from earlier work. The source says: (§3) Alyteserin-1c is an AMP comprising a 23 amino acid residue (net charge: +2) and was first isolated from norepinephrine-stimulated skin secretions from the midwife toad Alytes obstetricans. […] Although AMPs are an alternative means for eliminating bacteria in foods, due to their biocompatibility, biodegradability, broad spectrum of activity and potent bactericidal properties, most ...

The next data set deals with human erythrocytes. Particulars: cited from earlier work.
Description: as §3

Where no end group is shown, it is not given here.

Turning to “GLKEIFKAGLGSLVKGIAAHVAS [peptide +2, Alyteserin-1c]”, the MIC in data set [1] is 125 µM; with E. coli ATCC25922, 15.2 µM; in the data set with E. coli, 25 µM. Besides, in data set [2], the “concentration at which changes in surface tension and aggregation index are achieved” value was 20 µM. The hemolytic activity entry in the data set with human erythrocytes is given as “low hemolytic activity”.
Regarding GLKRIFKSGLGKLVKGISAHVAS [peptide +5], the minimum inhibitory concentration (MIC) (in data set [1]; against E. coli ATCC25922) was 62.5 µM throughout. The “concentration at which changes in surface tension and aggregation index are achieved” value in data set [2] is 5 to 10 µM.

The MIC is the lowest concentration found to suppress growth.
